From ChEMBL document CHEMBL1201862, “PubChem BioAssay data set” (2004)
Activity calls are given as the source filed them.

Columns and labels:
[1] = target: T1, Adenosylmethionine-8-amino-7-oxononanoate aminotransferase (Mycobacterium tuberculosis, UniProt P9WQ81); experiment: Mycobacterium tuberculosis BioA enzyme inhibitor Measured in Biochemical System Using Plate Reader - 2163-02_Inhibitor_Dose_CherryPick_Activity.; assay type: functional, Mycobacterium tuberculosis UT205
T1 sequence (P9WQ81 whole entry): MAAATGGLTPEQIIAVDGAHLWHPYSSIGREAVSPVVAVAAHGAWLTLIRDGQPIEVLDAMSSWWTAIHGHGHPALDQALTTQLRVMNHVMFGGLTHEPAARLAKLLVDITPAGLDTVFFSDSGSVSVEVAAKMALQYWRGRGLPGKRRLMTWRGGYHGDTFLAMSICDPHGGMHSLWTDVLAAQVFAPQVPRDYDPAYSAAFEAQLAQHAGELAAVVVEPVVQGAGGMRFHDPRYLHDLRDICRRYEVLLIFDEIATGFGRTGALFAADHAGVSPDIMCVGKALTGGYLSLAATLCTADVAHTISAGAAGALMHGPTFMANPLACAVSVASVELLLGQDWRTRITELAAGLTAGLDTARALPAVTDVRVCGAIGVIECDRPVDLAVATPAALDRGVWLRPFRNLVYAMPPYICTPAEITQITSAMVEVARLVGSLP

cells [2] = assay type: functional, cell-based
[3] = target: T2, Nuclear receptor subfamily 0 group B member 1 (Homo sapiens, UniProt P51843); assay type: functional, cell-based;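 note: HEK293T cells transfected with SF-1 and DAX-1 plus StAR promoter luciferase reporter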
T2 sequence (P51843 whole entry): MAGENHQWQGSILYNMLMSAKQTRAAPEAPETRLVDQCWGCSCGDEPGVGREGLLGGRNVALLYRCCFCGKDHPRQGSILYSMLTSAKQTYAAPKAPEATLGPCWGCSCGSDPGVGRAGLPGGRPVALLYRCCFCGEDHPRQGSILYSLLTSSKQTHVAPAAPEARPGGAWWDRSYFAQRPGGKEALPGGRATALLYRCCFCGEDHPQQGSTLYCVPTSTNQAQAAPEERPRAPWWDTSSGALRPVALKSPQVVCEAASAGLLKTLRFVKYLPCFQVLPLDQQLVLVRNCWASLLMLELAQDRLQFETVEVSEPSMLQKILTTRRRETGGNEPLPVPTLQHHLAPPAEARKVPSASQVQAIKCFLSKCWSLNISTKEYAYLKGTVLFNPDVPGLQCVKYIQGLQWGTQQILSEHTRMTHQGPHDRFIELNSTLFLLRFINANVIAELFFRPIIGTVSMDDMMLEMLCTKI

cells [4] = assay type: functional, cell-based; remark: listed apart in the source
[5] = target: T3, Trace amine-associated receptor 1 (Homo sapiens, UniProt Q96RJ0); experiment: Fluorescence-based cell-based high throughput dose response assay to identify agonists of the human trace amine associated receptor 1 (TAAR1).; assay type: functional
T3 sequence (Q96RJ0 whole entry): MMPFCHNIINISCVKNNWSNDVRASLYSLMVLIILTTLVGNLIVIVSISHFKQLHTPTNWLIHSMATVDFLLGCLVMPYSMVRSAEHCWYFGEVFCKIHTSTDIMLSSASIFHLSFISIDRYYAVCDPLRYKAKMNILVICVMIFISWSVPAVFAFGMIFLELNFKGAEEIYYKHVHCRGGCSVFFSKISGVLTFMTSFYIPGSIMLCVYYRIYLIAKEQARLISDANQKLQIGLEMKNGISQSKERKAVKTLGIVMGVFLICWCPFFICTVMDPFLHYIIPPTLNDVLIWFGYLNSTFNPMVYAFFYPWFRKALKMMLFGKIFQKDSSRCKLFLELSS

[6] = target: T3, Trace amine-associated receptor 1; experiment: Counterscreen for agonists of the human trace amine associated receptor 1 (hTAAR1): Fluorescence-based cell-based high throughput dose response assay to identify hTAAR1 agonist that also desensitize TAAR1 receptor response.; assay type: functional
cells [7] = assay type: functional, cell-based; remark: listed apart in the source
[8] = target: T4, Small ubiquitin-related modifier 1 (Homo sapiens, UniProt P63165); experiment: SUMO1 protein interaction blockers, potency – biochemical, fluorescence polarization, uHTS hits, dose response (AID 624382); assay type: functional; conditions: read-out: IC50_Mean
T4 sequence (P63165 whole entry): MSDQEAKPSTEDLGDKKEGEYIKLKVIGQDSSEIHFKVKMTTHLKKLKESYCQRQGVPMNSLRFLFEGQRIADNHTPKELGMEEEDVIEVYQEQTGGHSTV

[9] = target: T4, Small ubiquitin-related modifier 1; experiment: SUMO1 protein-protein binding blockers, potency – biochemical, FRET, dose response (AID 624383); assay type: functional; conditions: read-out: IC50_Mean
[10] = viability loss in THP-1 monocytes – THP-1 cells, cytotoxicity control for Vif-APOBEC3G degradation inhibitor project, dose response (AID 1117359); assay type: functional; conditions: THP-1
[11] = target: Nuclear receptor subfamily 5 group A member 2 (Homo sapiens, UniProt O00482); assay type: functional, cell-based;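 note: HEK293T cells transfected with LRH-1 and a StAR promoter luciferase reporter; potency for inhibitors that lower LRH-1 driven reporter light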
Sequence of Nuclear receptor subfamily 5 group A member 2 (O00482 whole entry): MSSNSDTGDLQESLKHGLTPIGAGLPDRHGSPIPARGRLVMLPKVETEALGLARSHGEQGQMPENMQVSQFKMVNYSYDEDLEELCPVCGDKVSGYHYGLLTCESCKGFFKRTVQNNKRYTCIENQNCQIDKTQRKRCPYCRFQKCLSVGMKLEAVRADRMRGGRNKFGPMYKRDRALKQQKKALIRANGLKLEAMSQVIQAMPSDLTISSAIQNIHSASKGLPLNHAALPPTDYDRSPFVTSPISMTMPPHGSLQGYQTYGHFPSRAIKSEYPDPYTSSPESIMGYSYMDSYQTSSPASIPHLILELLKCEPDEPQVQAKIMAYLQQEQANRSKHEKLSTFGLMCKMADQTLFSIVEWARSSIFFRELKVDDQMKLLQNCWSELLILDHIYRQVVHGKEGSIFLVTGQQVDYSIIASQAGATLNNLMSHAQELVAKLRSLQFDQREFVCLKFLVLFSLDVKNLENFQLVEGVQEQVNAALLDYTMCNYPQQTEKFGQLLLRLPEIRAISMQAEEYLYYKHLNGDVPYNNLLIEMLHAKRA

Steroidogenic factor 1 = Steroidogenic factor 1 (Homo sapiens, UniProt Q13285); experiment: Counterscreen for inverse agonists of the liver receptor homolog-1 (LRH-1; NR5A2): Luminescence-based cell-based high throughput dose response assay to identify inverse agonists of the Steroidogenic Factor 1 Nuclear Receptor (SF1; NR5A1).; assay type: functional
Sequence of Steroidogenic factor 1 (Q13285 whole entry): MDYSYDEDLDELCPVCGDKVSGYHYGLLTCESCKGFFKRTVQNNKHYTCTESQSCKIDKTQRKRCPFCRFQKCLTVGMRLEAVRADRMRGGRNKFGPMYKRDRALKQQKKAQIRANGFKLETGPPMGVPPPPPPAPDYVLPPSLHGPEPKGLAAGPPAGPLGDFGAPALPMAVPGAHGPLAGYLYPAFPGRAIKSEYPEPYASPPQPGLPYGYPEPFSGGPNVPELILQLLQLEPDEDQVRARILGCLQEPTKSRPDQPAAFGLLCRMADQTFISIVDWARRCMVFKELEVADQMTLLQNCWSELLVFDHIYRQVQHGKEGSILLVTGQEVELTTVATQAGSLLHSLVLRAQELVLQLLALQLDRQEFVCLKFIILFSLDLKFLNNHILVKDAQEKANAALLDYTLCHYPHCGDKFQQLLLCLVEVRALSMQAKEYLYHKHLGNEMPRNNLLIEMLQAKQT

[12] = nonselective StAR promoter luciferase inhibitors – cell-based, luminescence, luciferase reporter, counter-screen for LRH-1 inverse agonist project, dose response (AID 651969); assay type: functional
Paired box protein Pax-8 = Paired box protein Pax-8 (Homo sapiens, UniProt Q06710); experiment: PAX8 transcriptional activity inhibition in RMG-I – RMG-I cells, luciferase, cherry-pick, dose response (AID 687027); assay type: functional, cell-based;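 note: luciferase reporter driven by Pax8 target thyroperoxidase promoter measured by SteadyGlo luminescence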
Sequence of Paired box protein Pax-8 (Q06710 whole entry): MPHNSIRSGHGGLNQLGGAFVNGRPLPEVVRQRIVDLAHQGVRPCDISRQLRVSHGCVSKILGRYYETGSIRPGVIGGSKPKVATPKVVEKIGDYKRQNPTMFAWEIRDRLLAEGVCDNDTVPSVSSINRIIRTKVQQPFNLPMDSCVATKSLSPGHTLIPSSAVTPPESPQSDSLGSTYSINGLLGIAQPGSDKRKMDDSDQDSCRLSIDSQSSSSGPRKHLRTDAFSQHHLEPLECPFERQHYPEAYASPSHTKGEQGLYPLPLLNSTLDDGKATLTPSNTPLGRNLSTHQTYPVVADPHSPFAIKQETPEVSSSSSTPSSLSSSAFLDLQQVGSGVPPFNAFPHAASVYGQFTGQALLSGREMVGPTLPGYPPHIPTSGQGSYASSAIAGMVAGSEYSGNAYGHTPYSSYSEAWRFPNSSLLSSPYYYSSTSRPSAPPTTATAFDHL

[13] = OVCAR8 cell viability loss – plate reader, dry powder samples, PAX8 project, dose response (AID 743197); assay type: functional, cell-based; conditions: OVCAR-8
[14] = IGROV1 cell killing – plate reader, dry powder samples, PAX8 inhibitor project, dose response (AID 743043); assay type: functional, cell-based; conditions: IGROV-1
[15] = growth inhibition of yeast DHODH-expressing 3D7 parasites – SYBR Green, dry powder samples, dose response (AID 1159570); assay type: functional, cell-based;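 note: parasite growth measured after 72 hours of compound exposure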
[16] = Dd2 malaria parasite growth inhibition potency – SYBR Green, dry powder samples, dose response (AID 1159566); assay type: functional, cell-based;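 note: potency for growth inhibition with lower SYBR green DNA signal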
[17] = growth inhibition of PfATP4-mutant resistant parasites – NITD609-resistant line, SYBR Green, dry powder, dose response (AID 1159571); assay type: functional, cell-based;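 note: parasites synchronized at ring stage by sorbitol before testing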
Nonstructural protein 1 = Nonstructural protein 1 (Influenza A virus, UniProt Q194T2); assay type: functional, Influenza A virus (A/California/07/2009(H1N1))
Sequence of Nonstructural protein 1 (Q194T2 whole entry): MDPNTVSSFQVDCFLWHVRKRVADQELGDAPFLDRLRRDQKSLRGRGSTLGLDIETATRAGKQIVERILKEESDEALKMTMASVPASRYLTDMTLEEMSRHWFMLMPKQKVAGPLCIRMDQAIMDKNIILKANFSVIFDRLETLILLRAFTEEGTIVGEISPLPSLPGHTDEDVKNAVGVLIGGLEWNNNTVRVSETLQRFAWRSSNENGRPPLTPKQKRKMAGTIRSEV

[18] = viability loss in HeLa cells – cytotoxicity control for MgcRacGAP inhibitor project, dose response (AID 624300); assay type: functional
[19] = target: T5, Rac GTPase-activating protein 1 (Homo sapiens, UniProt Q9H0H5); experiment: blockers of MgcRacGAP-driven Rac1 GTP hydrolysis – biochemical, ADP Hunter fluorescence, primary and confirmatory, confirmation (AID 624330); assay type: functional
T5 sequence (Q9H0H5 whole entry): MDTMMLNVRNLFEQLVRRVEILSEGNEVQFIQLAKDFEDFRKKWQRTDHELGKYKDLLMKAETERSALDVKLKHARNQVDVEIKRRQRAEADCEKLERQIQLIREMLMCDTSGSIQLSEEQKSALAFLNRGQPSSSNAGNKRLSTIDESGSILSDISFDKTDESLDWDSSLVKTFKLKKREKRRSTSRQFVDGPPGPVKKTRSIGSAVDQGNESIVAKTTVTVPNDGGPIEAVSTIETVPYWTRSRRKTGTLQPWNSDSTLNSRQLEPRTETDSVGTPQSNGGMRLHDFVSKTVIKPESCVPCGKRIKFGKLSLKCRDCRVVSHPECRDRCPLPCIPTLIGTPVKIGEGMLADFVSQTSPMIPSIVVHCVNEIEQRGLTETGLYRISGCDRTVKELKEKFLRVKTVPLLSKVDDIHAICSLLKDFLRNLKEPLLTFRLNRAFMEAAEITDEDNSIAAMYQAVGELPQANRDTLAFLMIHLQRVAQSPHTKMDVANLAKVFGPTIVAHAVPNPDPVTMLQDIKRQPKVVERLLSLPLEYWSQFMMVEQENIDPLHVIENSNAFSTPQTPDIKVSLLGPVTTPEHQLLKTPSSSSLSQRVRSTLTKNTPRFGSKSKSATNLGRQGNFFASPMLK

[20] = target: T6, DNA repair protein RAD52 homolog (Homo sapiens, UniProt P43351); assay type: functional, biochemical
T6 sequence (P43351 whole entry): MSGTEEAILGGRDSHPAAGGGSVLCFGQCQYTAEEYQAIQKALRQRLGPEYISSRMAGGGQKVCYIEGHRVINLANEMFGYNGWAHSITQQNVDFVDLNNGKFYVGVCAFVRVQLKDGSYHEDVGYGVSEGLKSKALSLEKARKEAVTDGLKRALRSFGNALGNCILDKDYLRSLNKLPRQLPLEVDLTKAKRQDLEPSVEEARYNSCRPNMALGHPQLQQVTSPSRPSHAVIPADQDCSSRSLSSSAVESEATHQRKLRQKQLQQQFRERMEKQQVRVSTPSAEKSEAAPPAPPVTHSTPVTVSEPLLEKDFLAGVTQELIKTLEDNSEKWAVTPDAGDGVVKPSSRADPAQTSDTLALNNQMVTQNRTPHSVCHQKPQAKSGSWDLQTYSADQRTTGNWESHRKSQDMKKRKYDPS

With `CCCN1CCN(C(=O)C2CCN(c3nnc(C)c4c(C)n(-c5ccc(C)cc5)nc34)CC2)CC1` the AC50 [1] was 12.3 µM (active).
For `COc1ccc(C(CNC(=O)c2ccc(Cl)c(NC(=O)c3cccs3)c2)N2CCCC2)cc1` (stereo unspecified), the IC50 (cells [2]) was > 67.5 µM (inactive) and the IC50 [3] was > 67.5 µM (inactive).
In the case of `O=C(Nc1ccncc1)Nc1ccc(F)cc1`, the IC50 (cells [4]) is reported as > 29.9 µM (inactive), the EC50 [5] is reported as 0.548 µM (active) and the IC50 [6] is reported as 4.91 µM (active). The EC50 (cells [7]) was > 29.9 µM (inactive).
For `Cc1ccc(Cn2c(CCNc3nc(-c4ccc(C)cc4)cs3)nc3cc(C(=O)NCCCO)ccc32)cc1`, the IC50 [8] was > 66.6 µM (inactive) and the IC50 [9] was 9.43 µM (active).
With `O=C(c1ccc(F)cc1)N1CCC(C(=O)N(Cc2ccccc2)c2ccccc2)CC1` the CC50 [10] was > 40 µM (active).
In the case of `CCc1cc(=O)oc2c(C)c(OCC(=O)NCCCN3CCOCC3)ccc12`, the IC50 [11] is reported as 35.9 µM (inactive), the IC50 (Steroidogenic factor 1) is reported as 35.9 µM (inactive) and the IC50 [12] is reported as 35.9 µM (inactive).
For `CC(O)(c1cccnc1)c1nc(-c2cccc(C#N)c2)cs1` (stereo unspecified), the IC50 [11] was 35.9 µM (inactive), the IC50 (Steroidogenic factor 1) was 15.7 µM (inactive) and the IC50 [12] was 35.9 µM (inactive).
For `CC(=O)c1cccc(-c2ccnc3c2CC(C(=O)NCc2ccccc2)O3)c1` (stereo unspecified), the IC50 (cells [2]) was > 67.4 µM (inactive) and the IC50 [3] was > 67.4 µM (inactive).
In the case of `COc1cc(C(=O)c2cc3c(cc2C)OCO3)cc(OC)c1OC`, the IC50 (cells [2]) is reported as > 67.5 µM (inactive) and the IC50 [3] is reported as > 67.5 µM (inactive).
In the case of `C[C@@H]1CN([C@H](C)CO)C(=O)c2cc(NC(=O)Nc3ccc(F)cc3)ccc2O[C@@H](C)CCCCO[C@@H]1CN(C)Cc1ccc2c(c1)OCO2`, the AC50 (Paired box protein Pax-8) is reported as 10.9 µM (active) and the AC50 [13] is reported as 58.6 µM (active).
In the case of `C[C@H]1CCCCO[C@H](CN(C)C(=O)Nc2cccc3ccccc23)[C@@H](C)CN([C@@H](C)CO)C(=O)c2cc(NS(=O)(=O)c3ccc(Cl)cc3)ccc2O1`, the AC50 (Paired box protein Pax-8) is reported as 4.51 µM (active), the AC50 [14] is reported as 55.2 µM (active) and the AC50 [13] is reported as > 70 µM (inactive).
With `CCOc1cccc(-c2c(C(=O)N/N=C/c3ccc(C)o3)nnn2-c2nonc2N)c1` the IC50 (cells [4]) was > 29.9 µM (inactive), the EC50 [5] was 3.78 µM (active) and the IC50 [6] was 17.2 µM (inactive). The EC50 (cells [7]) was 19.4 µM (inactive).
In the case of `C[C@H](CO)N1C[C@H](C)[C@@H](CN(C)CC2CCCC2)Oc2ncc(C#CCc3ccccc3)cc2C1=O`, the AC50 [15] is reported as 3.18 µM (active), the AC50 [16] is reported as 0.59 µM (active) and the AC50 [17] is reported as 0.28 µM (active).
With `CCN(CC)CCNc1ccc(C)c2sc3ccc(O)cc3c(=O)c12` the IC50 (Nonstructural protein 1) was 19.7 µM (active), the CC50 [18] was 31 µM (active) and the IC50 [19] was 21.8 µM (active). The AC50 [20] was 0.655 µM (active).
